This test deals with MDA-231 cancer cells. Kind of test: Inhibition of proliferation assay, cell confluence (IncuCyte live cell imaging). Type of test: cell-based. As to conditions: MDA-231 cells, concentration 10 uM; relative confluence normalised to time zero, images every 3 h over 4-5 d. An excerpt: Inhibition of Proliferation Assay Cell Confluence The confluence value is a surrogate for cell proliferation and growth. The value is expressed as a percent confluence, which represents the fraction of culture dish-surface that is occupied by cells. As the number of cells in the dish increases over time due to proliferation, so will their coverage of that surface increase. Expansion of the cell population on the cell culture-dish surface and confluence have mostly a linear relationship until the cells on the plate surface begin to reach saturation or maximum density. Confluence is determined based on image analysis. Image based software can identify objects in the image field base on changes to pixel density in a grey scale image. The software can then assign a mask to those pixels within the object. Objects can be ‘gated’ out based on size and shape. To determine cell confluence, images of cells are first masked as objects. The surface area of the image that is masked is measured and compared to the total surface area of the culture dish surface to obtain a percent confluence. MDA-231 cancer cells were obtained from ATCC. Cells were cultured in Dulbecco's Modified Eagle Medium (DMEM) supplemented with 10% Fetal Bovine Serum (FBS), 2 mM Glutamax, 1 mM Non Essential Amino Acid (NEAA) solution and 1 mM sodium pyruvate. Compounds were dissolved in DMSO at 10 mM and diluted in cellular medium and tested at 10 μM (micromolar). Final DMSO concentrations were <0.1%. Images were acquired with an IncuCyte Live Cell Imaging microscopy (Essen Bioscience) at every 3 h under cell culture conditions with 10× objective over 4-5 d. Cell confluence was calculated from one field of view per well using the IncuCyte in-built algorithm. Relative confluence values were obtained by normalising each value to the time zero value in each sample.
With `CC[C@H]1OC(=O)[C@H](C)[C@@H](O[C@H]2C[C@@](C)(OC)[C@@H](O)[C@H](C)O2)[C@H](C)[C@@H](O[C@@H]2O[C@H](C)C[C@H](N(C)C)[C@H]2O)[C@](C)(O)C[C@@H](C)CN(C(=O)CCCCC[PH](c2ccccc2)(c2ccccc2)c2ccccc2)[C@H](C)[C@@H](O)[C@]1(C)O` [Example 6, {6-[(2R,3S,4R,5R,8R,10R,11R,12S,13S,14R)-11-{[(2S,3R,4S,6R)-4-(dimethylamino)-3-hydroxy-6-methyloxan-2-yl]oxy}-2-ethyl-3,4,10-trihydroxy-13-{[(2R,4R,5S,6S)-5-hydroxy-4-methoxy-4,6-dimethyloxan-2-yl]oxy}-3,5,8,10,12,14-hexamethyl-15-oxo-1-oxa-6-azacyclopentadecan-6-yl]-6-oxohexyl}triphenylphosphonium hexafluorophosphate(V)], the “% Confluence” value was determined as 118.9%.

In the case of `CC[C@H]1OC(=O)[C@H](C)[C@@H](O)[C@H](C)[C@@H](O[C@@H]2O[C@H](C)C[C@H](N(C)C)[C@H]2O)[C@](C)(O)C[C@@H](C)CN(C(=O)CCCCCCCCCCC[P+](c2ccccc2)(c2ccccc2)c2ccccc2)[C@H](C)[C@@H](O)[C@]1(C)O` [Example 12, {12-[(2R,3S,4R,5R,8R,10R,11R,12S,13S,14R)-11-{[(2S,3R,4S,6R)-4-(dimethylamino)-3-hydroxy-6-methyloxan-2-yl]oxy}-2-ethyl-3,4,10,13-tetrahydroxy-3,5,8,10,12,14-hexamethyl-15-oxo-1-oxa-6-azacyclopentadecan-6-yl]-12-oxododecyl}triphenylphosphonium hexafluorophosphate(V)], the “% Confluence” value is on record as 6.6%. Regarding `CC[C@H]1OC(=O)[C@H](C)[C@@H](O[C@H]2C[C@@](C)(OC)[C@@H](O)[C@H](C)O2)[C@H](C)[C@@H](O[C@@H]2O[C@H](C)C[C@H](N(C)C)[C@H]2O)[C@](C)(O)C[C@@H](C)CN(CCCCCCCCCC[PH](c2ccccc2)(c2ccccc2)c2ccccc2)[C@H](C)[C@@H](O)[C@]1(C)O` [Example 14, {10-[(2R,3S,4R,5R,8R,10R,11R,12S,13S,14R)-11-{[(2S,3R,4S,6R)-4-(dimethylamino)-3-hydroxy-6-methyloxan-2-yl]oxy}-2-ethyl-3,4,10-trihydroxy-13-{[(2R,4R,5S,6S)-5-hydroxy-4-methoxy-4,6-dimethyloxan-2-yl]oxy}-3,5,8,10,12,14-hexamethyl-15-oxo-1-oxa-6-azacyclopentadecan-6-yl]decyl}triphenylphosphonium iodide], the “% Confluence” value was 10.1%. Under `CC[C@H]1OC(=O)[C@H](C)[C@@H](O[C@H]2C[C@@](C)(OC)[C@@H](O)[C@H](C)O2)[C@H](C)[C@@H](O[C@@H]2O[C@H](C)C[C@H](N(C)C)[C@H]2O)[C@](C)(O)C[C@@H](C)CN(CCCCCCCCC[PH](c2ccccc2)(c2ccccc2)c2ccccc2)[C@H](C)[C@@H](O)[C@]1(C)O` [Example 15, {9-[(2R,3S,4R,5R,8R,10R,11R,12S,13S,14R)-11-{[(2S,3R,4S,6R)-4-(dimethylamino)-3-hydroxy-6-methyloxan-2-yl]oxy}-2-ethyl-3,4,10-trihydroxy-13-{[(2R,4R,5S,6S)-5-hydroxy-4-methoxy-4,6-dimethyloxan-2-yl]oxy}-3,5,8,10,12,14-hexamethyl-15-oxo-1-oxa-6-azacyclopentadecan-6-yl]nonyl}triphenylphosphonium iodide] stands 10.7%. With `CC[C@H]1OC(=O)[C@H](C)[C@@H](O)[C@H](C)[C@@H](O)[C@](C)(O)C[C@@H](C)CN(C(=O)CCCCCCCCCCC[PH](c2ccccc2)(c2ccccc2)c2ccccc2)[C@H](C)[C@@H](O)[C@]1(C)O` [Example 13, {12-[(2R,3S,4R,5R,8R,10R,11R,12S,13S,14R)-2-ethyl-3,4,10,11,13-pentahydroxy-3,5,8,10,12,14-hexamethyl-15-oxo-1-oxa-6-azacyclopentadecan-6-yl]-12-oxododecyl}triphenylphosphonium hexafluorophosphate(V)] the figure was 11%.
